The values below come from ChEMBL document CHEMBL5465560, “Selectivity Literature for EUbOPEN Chemogenomic Library” (2024).

In one assay the target is Activated CDC42 kinase 1 (Homo sapiens, UniProt Q07912). In words: Selectivity interaction (KinomeScan (DiscoverX)) EUB0001619a TNK2. To be noted: at 1 µM.
Assay [1] has as its target T1, Serine/threonine-protein kinase Sgk3 (Homo sapiens) (UniProt Q96BR1).
T1 sequence (whole entry): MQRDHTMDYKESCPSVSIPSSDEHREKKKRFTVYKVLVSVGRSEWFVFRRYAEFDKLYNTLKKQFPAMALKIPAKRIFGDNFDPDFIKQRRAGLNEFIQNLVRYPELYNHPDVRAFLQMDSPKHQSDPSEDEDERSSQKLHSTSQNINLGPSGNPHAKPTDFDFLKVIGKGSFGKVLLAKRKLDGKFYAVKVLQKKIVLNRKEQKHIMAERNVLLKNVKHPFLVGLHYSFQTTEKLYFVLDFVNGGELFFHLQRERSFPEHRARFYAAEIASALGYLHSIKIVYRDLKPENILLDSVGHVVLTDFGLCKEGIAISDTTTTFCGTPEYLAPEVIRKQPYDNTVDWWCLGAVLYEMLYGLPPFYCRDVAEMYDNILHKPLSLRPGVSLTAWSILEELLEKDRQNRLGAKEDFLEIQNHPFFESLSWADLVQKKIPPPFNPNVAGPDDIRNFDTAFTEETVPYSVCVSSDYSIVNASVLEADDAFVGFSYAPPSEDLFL
In words: Selectivity interaction (SelectScreen profiling (Invitrogen)) EUB0000607a SGK3. To be noted: at 2 µM.

For assay [2], the system named is Epidermal growth factor receptor (Homo sapiens), P00533 [L861Q]. To be noted: at 10 µM.
Sequence of Epidermal growth factor receptor (Homo sapiens), P00533 [L861Q] (P00533 whole entry L861Q): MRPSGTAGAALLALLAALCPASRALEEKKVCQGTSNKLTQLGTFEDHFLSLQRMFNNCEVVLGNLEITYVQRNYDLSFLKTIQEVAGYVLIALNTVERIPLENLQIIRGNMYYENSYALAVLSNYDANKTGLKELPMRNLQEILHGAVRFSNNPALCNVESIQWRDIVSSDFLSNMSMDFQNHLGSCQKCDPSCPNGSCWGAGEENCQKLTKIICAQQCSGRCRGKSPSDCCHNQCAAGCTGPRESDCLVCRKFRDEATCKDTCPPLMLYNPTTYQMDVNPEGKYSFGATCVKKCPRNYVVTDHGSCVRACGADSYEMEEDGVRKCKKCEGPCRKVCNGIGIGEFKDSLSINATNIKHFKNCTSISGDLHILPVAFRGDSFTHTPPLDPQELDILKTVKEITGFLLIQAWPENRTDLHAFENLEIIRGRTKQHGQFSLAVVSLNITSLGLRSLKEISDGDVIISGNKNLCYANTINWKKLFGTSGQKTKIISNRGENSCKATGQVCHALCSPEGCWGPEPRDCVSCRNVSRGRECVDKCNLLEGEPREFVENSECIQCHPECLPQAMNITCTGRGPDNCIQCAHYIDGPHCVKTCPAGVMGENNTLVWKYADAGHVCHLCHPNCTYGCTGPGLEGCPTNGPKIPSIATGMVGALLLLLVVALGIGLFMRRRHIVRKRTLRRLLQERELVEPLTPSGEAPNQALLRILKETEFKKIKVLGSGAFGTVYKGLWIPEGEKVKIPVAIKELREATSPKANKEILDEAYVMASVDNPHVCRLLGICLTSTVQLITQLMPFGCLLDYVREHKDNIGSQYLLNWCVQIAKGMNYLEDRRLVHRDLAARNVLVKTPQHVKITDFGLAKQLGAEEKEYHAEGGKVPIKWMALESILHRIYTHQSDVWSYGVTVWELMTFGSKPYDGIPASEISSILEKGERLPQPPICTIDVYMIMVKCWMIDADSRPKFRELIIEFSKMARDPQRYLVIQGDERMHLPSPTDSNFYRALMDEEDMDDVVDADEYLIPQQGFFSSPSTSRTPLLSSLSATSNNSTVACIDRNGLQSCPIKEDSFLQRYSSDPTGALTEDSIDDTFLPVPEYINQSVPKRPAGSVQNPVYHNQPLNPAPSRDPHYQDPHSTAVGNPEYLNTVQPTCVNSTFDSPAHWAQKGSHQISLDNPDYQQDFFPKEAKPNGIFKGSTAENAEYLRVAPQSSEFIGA
Assay [3] addresses T2, Testis-specific serine/threonine-protein kinase 2 (Homo sapiens) (UniProt Q96PF2).
T2 sequence (whole entry): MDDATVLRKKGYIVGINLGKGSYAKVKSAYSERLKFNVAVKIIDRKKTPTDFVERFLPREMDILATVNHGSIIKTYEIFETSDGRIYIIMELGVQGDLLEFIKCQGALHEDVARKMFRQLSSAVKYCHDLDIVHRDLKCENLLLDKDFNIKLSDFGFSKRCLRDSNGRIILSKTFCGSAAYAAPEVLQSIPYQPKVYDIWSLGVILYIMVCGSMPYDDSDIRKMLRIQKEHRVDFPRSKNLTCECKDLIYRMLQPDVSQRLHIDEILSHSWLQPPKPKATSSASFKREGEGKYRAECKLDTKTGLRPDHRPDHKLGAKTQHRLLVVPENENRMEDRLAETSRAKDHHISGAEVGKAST
In words: Selectivity interaction (Kinase panel (Invitrogen)) EUB0000639a TSSK2. To be noted: at 200 nM.

Assay [4] concerns the target Glycogen synthase kinase-3 beta (Homo sapiens, UniProt P49841). In words: Selectivity interaction (Kinase panel (DSF assay)) EUB0001559a GSK3B. In general terms: Differential scanning fluorimetry follows unfolding on heating by fluorescence.
Assay [5] concerns the target Ephrin type-A receptor 5 (Homo sapiens) (UniProt P54756). In words: Selectivity interaction (Kinase panel (DSF assay)) EUB0001559a EPHA5.
Assay [6] has as its target T3, Mitogen-activated protein kinase 13 (Homo sapiens) (UniProt O15264).
T3 sequence (whole entry): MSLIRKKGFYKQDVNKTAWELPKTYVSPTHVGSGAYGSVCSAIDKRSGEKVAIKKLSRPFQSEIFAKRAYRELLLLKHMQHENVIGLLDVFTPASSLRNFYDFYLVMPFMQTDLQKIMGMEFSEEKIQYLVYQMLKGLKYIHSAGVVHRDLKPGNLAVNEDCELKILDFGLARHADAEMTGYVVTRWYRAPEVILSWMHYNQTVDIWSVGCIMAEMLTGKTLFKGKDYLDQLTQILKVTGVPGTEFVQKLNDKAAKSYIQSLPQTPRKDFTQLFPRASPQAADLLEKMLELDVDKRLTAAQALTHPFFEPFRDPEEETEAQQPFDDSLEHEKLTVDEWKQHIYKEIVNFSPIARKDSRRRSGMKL
Nature of the assay: Selectivity interaction (KinomeScan (DiscoverX)) EUB0001049a MAPK13. To be noted: at 1 µM.

The target of assay [7] is T4, Tyrosine-protein kinase ITK/TSK (Homo sapiens) (UniProt Q08881).
T4 sequence (whole entry): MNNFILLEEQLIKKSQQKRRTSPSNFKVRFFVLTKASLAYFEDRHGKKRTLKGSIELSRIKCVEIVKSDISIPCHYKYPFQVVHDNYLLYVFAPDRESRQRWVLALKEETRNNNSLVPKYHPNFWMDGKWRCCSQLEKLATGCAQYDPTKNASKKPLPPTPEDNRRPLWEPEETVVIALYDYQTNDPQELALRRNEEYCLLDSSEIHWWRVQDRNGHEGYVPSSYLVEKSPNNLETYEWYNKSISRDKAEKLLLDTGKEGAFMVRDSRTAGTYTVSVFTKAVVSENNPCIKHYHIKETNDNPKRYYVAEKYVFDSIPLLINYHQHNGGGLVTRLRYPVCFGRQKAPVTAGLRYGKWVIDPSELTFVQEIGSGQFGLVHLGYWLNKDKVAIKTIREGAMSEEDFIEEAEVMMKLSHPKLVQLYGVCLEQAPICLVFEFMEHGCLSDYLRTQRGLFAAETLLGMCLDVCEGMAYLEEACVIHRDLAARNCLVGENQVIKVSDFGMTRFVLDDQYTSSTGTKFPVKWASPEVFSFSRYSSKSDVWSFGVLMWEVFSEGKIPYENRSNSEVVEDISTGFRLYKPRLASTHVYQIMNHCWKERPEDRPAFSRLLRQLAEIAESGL
Nature of the assay: Selectivity interaction (KinomeScan (DiscoverX)) EUB0001049a ITK. To be noted: at 1 µM.

The next assay has as its target Mu-type opioid receptor (Homo sapiens, UniProt P35372). Nature of the assay: Selectivity interaction (Opioid Mu GTPgS agonist assay ) EUB0000877a OPRM1.
Assay [8] has as its target T5, Muscarinic acetylcholine receptor M1 (Homo sapiens) (UniProt P11229).
T5 sequence (whole entry): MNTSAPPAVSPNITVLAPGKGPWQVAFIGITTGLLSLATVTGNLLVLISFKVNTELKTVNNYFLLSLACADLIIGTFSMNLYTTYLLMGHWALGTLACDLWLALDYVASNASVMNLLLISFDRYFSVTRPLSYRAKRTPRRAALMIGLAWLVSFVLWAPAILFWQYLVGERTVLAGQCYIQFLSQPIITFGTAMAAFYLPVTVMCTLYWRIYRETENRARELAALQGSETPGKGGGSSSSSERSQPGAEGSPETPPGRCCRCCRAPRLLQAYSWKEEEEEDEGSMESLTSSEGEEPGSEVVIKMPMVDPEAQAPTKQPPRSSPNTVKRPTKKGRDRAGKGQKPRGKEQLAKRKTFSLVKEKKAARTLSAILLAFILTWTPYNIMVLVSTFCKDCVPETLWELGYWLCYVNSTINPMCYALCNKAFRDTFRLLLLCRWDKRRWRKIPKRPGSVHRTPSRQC
Nature of the assay: Selectivity interaction (GPCR panel (PDSP screen)) EUB0001079a CHRM1. The conditions noted are these: at 10 µM.

Assay [9] addresses Tyrosine-protein kinase JAK1 (Homo sapiens, UniProt P23458). In words: Selectivity interaction (KinomeScan (DiscoverX)) EUB0000229b JAK1. The conditions noted are these: at 10 µM.

Sequence of Glycogen synthase kinase-3 beta (P49841 whole entry, looked up): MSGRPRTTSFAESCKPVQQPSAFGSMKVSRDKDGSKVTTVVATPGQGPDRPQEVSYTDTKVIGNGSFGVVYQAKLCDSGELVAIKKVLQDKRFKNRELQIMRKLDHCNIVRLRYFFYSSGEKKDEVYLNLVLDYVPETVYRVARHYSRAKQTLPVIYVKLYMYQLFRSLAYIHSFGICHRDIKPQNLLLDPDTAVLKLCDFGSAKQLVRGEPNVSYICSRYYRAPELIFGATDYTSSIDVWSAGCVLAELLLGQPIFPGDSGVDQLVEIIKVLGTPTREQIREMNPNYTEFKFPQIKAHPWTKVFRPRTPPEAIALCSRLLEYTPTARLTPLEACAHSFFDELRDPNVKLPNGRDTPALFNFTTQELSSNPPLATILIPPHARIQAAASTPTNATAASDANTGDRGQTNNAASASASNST
Sequence of Activated CDC42 kinase 1 (Q07912 whole entry, looked up): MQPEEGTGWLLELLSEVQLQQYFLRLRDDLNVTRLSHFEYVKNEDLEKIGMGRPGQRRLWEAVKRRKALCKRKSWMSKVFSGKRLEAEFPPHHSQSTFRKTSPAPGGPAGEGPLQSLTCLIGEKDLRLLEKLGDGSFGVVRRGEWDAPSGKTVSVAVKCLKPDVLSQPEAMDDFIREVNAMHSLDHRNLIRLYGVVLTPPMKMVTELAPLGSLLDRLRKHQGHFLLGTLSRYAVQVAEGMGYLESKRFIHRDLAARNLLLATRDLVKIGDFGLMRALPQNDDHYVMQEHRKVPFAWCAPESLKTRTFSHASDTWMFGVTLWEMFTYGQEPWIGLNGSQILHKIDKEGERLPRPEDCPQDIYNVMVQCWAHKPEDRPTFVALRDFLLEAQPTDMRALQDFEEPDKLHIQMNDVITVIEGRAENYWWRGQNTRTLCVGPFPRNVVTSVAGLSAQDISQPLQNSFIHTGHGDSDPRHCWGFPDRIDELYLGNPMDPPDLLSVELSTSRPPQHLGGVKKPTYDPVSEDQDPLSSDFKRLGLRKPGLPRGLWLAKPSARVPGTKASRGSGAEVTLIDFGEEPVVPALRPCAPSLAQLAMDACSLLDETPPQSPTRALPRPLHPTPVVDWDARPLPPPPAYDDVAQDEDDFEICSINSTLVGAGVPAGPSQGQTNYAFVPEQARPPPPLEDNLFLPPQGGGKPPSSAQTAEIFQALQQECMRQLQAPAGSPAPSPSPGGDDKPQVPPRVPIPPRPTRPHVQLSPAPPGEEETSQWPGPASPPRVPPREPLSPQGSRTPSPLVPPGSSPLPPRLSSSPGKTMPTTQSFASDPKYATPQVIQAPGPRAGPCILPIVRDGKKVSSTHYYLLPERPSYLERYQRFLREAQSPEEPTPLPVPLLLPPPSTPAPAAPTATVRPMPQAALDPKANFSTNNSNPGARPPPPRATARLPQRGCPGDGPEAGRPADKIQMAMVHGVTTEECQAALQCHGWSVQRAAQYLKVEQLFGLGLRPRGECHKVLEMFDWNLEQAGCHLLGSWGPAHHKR
Sequence of Mu-type opioid receptor (P35372 whole entry): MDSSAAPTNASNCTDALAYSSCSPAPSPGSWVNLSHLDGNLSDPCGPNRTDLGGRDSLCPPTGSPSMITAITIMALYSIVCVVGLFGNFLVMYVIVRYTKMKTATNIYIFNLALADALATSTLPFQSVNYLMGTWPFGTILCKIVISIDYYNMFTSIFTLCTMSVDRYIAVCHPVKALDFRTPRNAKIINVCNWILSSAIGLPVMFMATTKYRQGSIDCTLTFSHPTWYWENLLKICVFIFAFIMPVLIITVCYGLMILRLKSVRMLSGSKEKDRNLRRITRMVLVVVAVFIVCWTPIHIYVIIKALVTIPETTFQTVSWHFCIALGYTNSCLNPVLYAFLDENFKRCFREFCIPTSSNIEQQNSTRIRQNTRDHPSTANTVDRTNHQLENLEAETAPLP
Sequence of Ephrin type-A receptor 5 (Homo sapiens) (P54756 whole entry): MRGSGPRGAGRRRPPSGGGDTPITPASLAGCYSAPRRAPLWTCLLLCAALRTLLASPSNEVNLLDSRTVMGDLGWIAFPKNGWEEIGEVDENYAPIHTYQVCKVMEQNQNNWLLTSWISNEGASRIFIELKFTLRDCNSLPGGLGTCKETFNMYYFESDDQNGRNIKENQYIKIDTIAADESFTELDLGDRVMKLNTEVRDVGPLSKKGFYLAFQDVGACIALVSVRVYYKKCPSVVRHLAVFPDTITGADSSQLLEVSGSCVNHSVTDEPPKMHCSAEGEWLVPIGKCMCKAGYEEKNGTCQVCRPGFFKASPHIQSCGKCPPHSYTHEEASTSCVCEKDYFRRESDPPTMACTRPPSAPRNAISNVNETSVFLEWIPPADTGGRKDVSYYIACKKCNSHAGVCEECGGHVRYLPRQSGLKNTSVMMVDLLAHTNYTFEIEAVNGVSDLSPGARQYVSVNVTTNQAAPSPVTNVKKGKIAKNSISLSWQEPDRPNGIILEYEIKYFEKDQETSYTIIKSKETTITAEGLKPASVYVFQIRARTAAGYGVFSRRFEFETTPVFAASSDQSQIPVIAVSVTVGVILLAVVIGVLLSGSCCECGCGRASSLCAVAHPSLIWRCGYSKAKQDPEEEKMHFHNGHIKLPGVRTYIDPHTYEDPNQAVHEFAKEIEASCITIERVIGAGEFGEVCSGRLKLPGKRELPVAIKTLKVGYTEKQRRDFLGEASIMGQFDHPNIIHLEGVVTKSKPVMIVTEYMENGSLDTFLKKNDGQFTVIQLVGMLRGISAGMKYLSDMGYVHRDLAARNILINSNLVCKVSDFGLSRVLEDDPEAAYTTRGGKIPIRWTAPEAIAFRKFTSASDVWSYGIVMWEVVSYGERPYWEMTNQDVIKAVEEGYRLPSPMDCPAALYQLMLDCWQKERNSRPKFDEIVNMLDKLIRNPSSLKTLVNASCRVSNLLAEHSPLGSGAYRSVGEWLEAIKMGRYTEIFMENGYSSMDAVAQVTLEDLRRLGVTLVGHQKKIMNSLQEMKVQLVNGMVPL

`N#Cc1cccc(-c2c[nH]c3ncnc(N4CCOCC4)c23)c1`: the % of control on Activated CDC42 kinase 1 came to 98%.

As for `CNC(=O)Nc1ccc(-c2nc(N3CC4CCC(C3)O4)c3cnn(C4CCC5(CC4)OCCO5)c3n2)cc1`, the % of inhibition in [1] came out at 3%.

`Cc1cc([C@@H](C)Nc2ccccc2C(=O)O)c2nc(N3CCOCC3)cc(=O)n2c1` [AZD-6482] gave a % of control in [2] of 100%.

With `CC[C@@H]1[C@H](F)C(=O)N[C@@H]1COc1nccc2cc(C(N)=O)c(OC)cc12` [ZIMLOVISERTIB], the % of inhibition in [3] was determined as 8.34%.

For the compound `CN(C(=O)c1cnn2cccnc12)c1cc2c(cc1N1CCOCC1)C(=O)N(C[C@@H](F)C(C)(C)O)C2`, the dTM was -0.4 K in assay [4] and -0.3 K in assay [5].

As for `COc1cc(Nc2nc(C)cc(-c3cnn4nc(OC)ccc34)n2)cc(C(F)(F)F)c1`, the % of control in assay [6] amounted to 95%; in assay [7] it was 82%.

For the compound `CCC(=O)N1CC[C@H](Nc2ncnc3c2CN(c2cnc(OC)c(C(F)(F)F)c2)CC3)C1` [LENIOLISIB], the IC50 on Mu-type opioid receptor was > 30 µM.

With `Nc1cnc(N2CCc3cc(S(=O)(=O)Nc4c(F)cc(Cl)cc4F)cc(N4CCCC4=O)c32)nc1` [TP-020n], in assay [8], the % of inhibition is -9.48%.

In assay [9], `COc1cc(N(C)c2ccnc3ccc(C(F)(F)F)cc23)cc(OC)c1OC` came in with a % binding of 70%.

One may read the IC50 as the concentration that inhibits the measured activity by half. Lower therefore signals greater potency.
